≈ marks a conversion by molar mass, not a printed value.
Assays:
Clostridium bartlettii [1] = test: Antibacterial activity against Clostridium bartlettii by CLSI M11-A6 agar dilution method in presence of beta-lactamase inhibitor Sulbactam; type: functional; settings: Intestinibacter bartlettii
Clostridium glycolicum = test: Antibacterial activity against Clostridium glycolicum by CLSI M11-A6 agar dilution method in presence of beta-lactamase inhibitor Sulbactam; type: functional; settings: Terrisporobacter glycolicus
[2] = system: Bifidobacterium pseudolongum; test: Antibacterial activity against Bifidobacterium pseudolongum by CLSI M11-A6 agar dilution method in presence of beta-lactamase inhibitor Sulbactam; type: functional
[3] = system: Enterocloster clostridioformis; test: Antibacterial activity against Clostridium clostridioforme by CLSI M11-A6 agar dilution method; type: functional
Clostridioides difficile = test: Antibacterial activity against Clostridium difficile by CLSI M11-A6 agar dilution method; type: functional
Thomasclavelia ramosa = test: Antibacterial activity against Clostridium ramosum by CLSI M11-A6 agar dilution method; type: functional
Clostridium bartlettii [4] = test: Antibacterial activity against Clostridium bartlettii by CLSI M11-A6 agar dilution method; type: functional; settings: Intestinibacter bartlettii
Clostridium beijerinckii = test: Antibacterial activity against Clostridium beijerinckii by CLSI M11-A6 agar dilution method; type: functional
Clostridium butyricum = test: Antibacterial activity against Clostridium butyricum by CLSI M11-A6 agar dilution method; type: functional
Clostridium = test: Antibacterial activity against Clostridium hypermegas by CLSI M11-A6 agar dilution method; type: functional
Clostridium leptum = test: Antibacterial activity against Clostridium leptum by CLSI M11-A6 agar dilution method; type: functional
Flavonifractor plautii = test: Antibacterial activity against Clostridium orbiscindens by CLSI M11-A6 agar dilution method; type: functional
[5] = system: Clostridium paraputrificum; test: Antibacterial activity against Clostridium paraputrificum by CLSI M11-A6 agar dilution method; type: functional
Clostridium scindens = test: Antibacterial activity against Clostridium scindens by CLSI M11-A6 agar dilution method; type: functional
[6] = system: Paeniclostridium sordellii; test: Antibacterial activity against Clostridium sordellii by CLSI M11-A6 agar dilution method; type: functional; settings: Paraclostridium sordellii
[7] = system: Bifidobacterium adolescentis; test: Antibacterial activity against Bifidobacterium adolescentis by CLSI M11-A6 agar dilution method; type: functional
Bifidobacterium bifidum = test: Antibacterial activity against Bifidobacterium bifidum by CLSI M11-A6 agar dilution method; type: functional
Bifidobacterium breve = test: Antibacterial activity against Bifidobacterium breve by CLSI M11-A6 agar dilution method; type: functional
[8] = Antibacterial activity against Bifidobacterium infantis by CLSI M11-A6 agar dilution method; type: functional, Bifidobacterium longum subsp. infantis; settings: Bifidobacterium longum
Bifidobacterium longum = test: Antibacterial activity against Bifidobacterium longum by CLSI M11-A6 agar dilution method; type: functional
Collinsella aerofaciens = test: Antibacterial activity against Colinsella aerofaciens by CLSI M11-A6 agar dilution method; type: functional
[9] = system: Coprobacillus cateniformis; test: Antibacterial activity against Coprobacillus cateniformis by CLSI M11-A6 agar dilution method; type: functional
[10] = system: Propionibacterium propionicum; test: Antibacterial activity against Propionibacterium propionicus by CLSI M11-A6 agar dilution method; type: functional; settings: Arachnia propionica
Ruminococcus obeum = test: Antibacterial activity against Ruminococcus obeum by CLSI M11-A6 agar dilution method; type: functional; settings: Blautia obeum
Ruminococcus albus = test: Antibacterial activity against Ruminococcus albus by CLSI M11-A6 agar dilution method; type: functional; settings: Hominimerdicola alba
[11] = system: Ruminococcus flavefaciens; test: Antibacterial activity against Ruminococcus flavefaciens by CLSI M11-A6 agar dilution method; type: functional
Ruminococcus lactaris = test: Antibacterial activity against Ruminococcus lactaris by CLSI M11-A6 agar dilution method; type: functional
Ruminococcus torques = test: Antibacterial activity against Ruminococcus torques by CLSI M11-A6 agar dilution method; type: functional; settings: Mediterraneibacter torques
Ruminococcus sp. = test: Antibacterial activity against Ruminococcus sp. by CLSI M11-A6 agar dilution method; type: functional
Anaerococcus tetradius = test: Antibacterial activity against Anaerococcus tetradius by CLSI M11-A6 agar dilution method; type: functional
Parvimonas micra = test: Antibacterial activity against Peptostreptococcus micros by CLSI M11-A6 agar dilution method; type: functional
Streptococcus anginosus = test: Antibacterial activity against Streptococcus anginosus by CLSI M11-A6 agar dilution method; type: functional
Phocaeicola vulgatus = test: Antibacterial activity against Bacteroides vulgatus by CLSI M11-A6 agar dilution method; type: functional
Odoribacter splanchnicus = test: Antibacterial activity against Bacteroides splanchnicus by CLSI M11-A6 agar dilution method; type: functional
Bilophila wadsworthia = test: Antibacterial activity against Bilophila wadsworthia by CLSI M11-A6 agar dilution method; type: functional
Fusobacterium mortiferum = test: Antibacterial activity against Fusobacterium mortiferum by CLSI M11-A6 agar dilution method; type: functional
Prevotella corporis = test: Antibacterial activity against Prevotella corporis by CLSI M11-A6 agar dilution method; type: functional
Prevotella denticola = test: Antibacterial activity against Prevotella P denticola by CLSI M11-A6 agar dilution method; type: functional
Prevotella disiens = test: Antibacterial activity against Prevotella P disiens by CLSI M11-A6 agar dilution method; type: functional
Prevotella intermedia = test: Antibacterial activity against Prevotella P intermedia by CLSI M11-A6 agar dilution method; type: functional
Prevotella nigrescens = test: Antibacterial activity against Prevotella nigrescens by CLSI M11-A6 agar dilution method; type: functional
[12] = system: Sutterella wadsworthensis; test: Antibacterial activity against Sutterella wadsworthensis by CLSI M11-A6 agar dilution method; type: functional

CC1(C)S[C@@H]2[C@H](NC(=O)[C@H](N)c3ccccc3)C(=O)N2[C@H]1C(=O)O [AMPICILLIN]
MIC50 (Clostridium bartlettii [1]): 0.25 µg/mL | MIC90 (Clostridium bartlettii [1]): 1 µg/mL | MIC50 (Clostridium glycolicum): 0.25 µg/mL | MIC90 (Clostridium glycolicum): 1 µg/mL | MIC50 [2]: 0.25 µg/mL | MIC90 [2]: 1 µg/mL

CCCCCCCCCC(=O)N[C@@H](Cc1c[nH]c2ccccc12)C(=O)N[C@H](CC(N)=O)C(=O)N[C@@H](CC(=O)O)C(=O)N[C@@H]1C(=O)NCC(=O)N[C@@H](CCCN)C(=O)N[C@@H](CC(=O)O)C(=O)N[C@H](C)C(=O)N[C@@H](CC(=O)O)C(=O)NCC(=O)N[C@H](CO)C(=O)N[C@@H]([C@H](C)CC(=O)O)C(=O)N[C@@H](CC(=O)c2ccccc2N)C(=O)O[C@@H]1C
MIC50 [3]: 2 µg/mL (≈ 1.23 µM) | MIC90 [3]: 4 µg/mL (≈ 2.47 µM) | MIC50 (Clostridioides difficile): 0.5 µg/mL (≈ 0.309 µM) | MIC90 (Clostridioides difficile): 1 µg/mL (≈ 0.617 µM) | MIC50 (Thomasclavelia ramosa): 64 µg/mL (≈ 39.5 µM) | MIC90 (Thomasclavelia ramosa): 64 µg/mL (≈ 39.5 µM) | MIC50 (Clostridium bartlettii [4]): 1 µg/mL (≈ 0.617 µM) | MIC90 (Clostridium bartlettii [4]): 8 µg/mL (≈ 4.94 µM) | MIC50 (Clostridium beijerinckii): 1 µg/mL (≈ 0.617 µM) | MIC90 (Clostridium beijerinckii): 8 µg/mL (≈ 4.94 µM) | MIC50 (Clostridium butyricum): 1 µg/mL (≈ 0.617 µM) | MIC90 (Clostridium butyricum): 8 µg/mL (≈ 4.94 µM) | MIC50 (Clostridium): 1 µg/mL (≈ 0.617 µM) | MIC90 (Clostridium): 8 µg/mL (≈ 4.94 µM) | MIC50 (Clostridium leptum): 1 µg/mL (≈ 0.617 µM) | MIC90 (Clostridium leptum): 8 µg/mL (≈ 4.94 µM) | MIC50 (Flavonifractor plautii): 1 µg/mL (≈ 0.617 µM) | MIC90 (Flavonifractor plautii): 8 µg/mL (≈ 4.94 µM) | MIC50 [5]: 1 µg/mL (≈ 0.617 µM) | MIC90 [5]: 8 µg/mL (≈ 4.94 µM) | MIC50 (Clostridium scindens): 1 µg/mL (≈ 0.617 µM) | MIC90 (Clostridium scindens): 8 µg/mL (≈ 4.94 µM) | MIC50 [6]: 1 µg/mL (≈ 0.617 µM) | MIC90 [6]: 8 µg/mL (≈ 4.94 µM) | MIC50 [7]: 1 µg/mL (≈ 0.617 µM) | MIC90 [7]: 32 µg/mL (≈ 19.7 µM) | MIC50 (Bifidobacterium bifidum): 1 µg/mL (≈ 0.617 µM) | MIC90 (Bifidobacterium bifidum): 32 µg/mL (≈ 19.7 µM) | MIC50 (Bifidobacterium breve): 1 µg/mL (≈ 0.617 µM) | MIC90 (Bifidobacterium breve): 32 µg/mL (≈ 19.7 µM) | MIC50 [8]: 1 µg/mL (≈ 0.617 µM) | MIC90 [8]: 32 µg/mL (≈ 19.7 µM) | MIC50 (Bifidobacterium longum): 1 µg/mL (≈ 0.617 µM) | MIC90 (Bifidobacterium longum): 32 µg/mL (≈ 19.7 µM) | MIC50 (Collinsella aerofaciens): 1 µg/mL (≈ 0.617 µM) | MIC90 (Collinsella aerofaciens): 32 µg/mL (≈ 19.7 µM) | MIC50 [9]: 1 µg/mL (≈ 0.617 µM) | MIC90 [9]: 32 µg/mL (≈ 19.7 µM) | MIC50 [10]: 1 µg/mL (≈ 0.617 µM) | MIC90 [10]: 32 µg/mL (≈ 19.7 µM) | MIC50 (Ruminococcus obeum): 0.5 µg/mL (≈ 0.309 µM) | MIC90 (Ruminococcus obeum): 0.5 µg/mL (≈ 0.309 µM) | MIC50 (Ruminococcus albus): 1 µg/mL (≈ 0.617 µM) | MIC90 (Ruminococcus albus): 2 µg/mL (≈ 1.23 µM) | MIC50 [11]: 1 µg/mL (≈ 0.617 µM) | MIC90 [11]: 2 µg/mL (≈ 1.23 µM) | MIC50 (Ruminococcus lactaris): 1 µg/mL (≈ 0.617 µM) | MIC90 (Ruminococcus lactaris): 2 µg/mL (≈ 1.23 µM) | MIC50 (Ruminococcus torques): 1 µg/mL (≈ 0.617 µM) | MIC90 (Ruminococcus torques): 2 µg/mL (≈ 1.23 µM) | MIC50 (Ruminococcus sp.): 1 µg/mL (≈ 0.617 µM) | MIC90 (Ruminococcus sp.): 4 µg/mL (≈ 2.47 µM) | MIC50 (Anaerococcus tetradius): 1 µg/mL (≈ 0.617 µM) | MIC90 (Anaerococcus tetradius): 4 µg/mL (≈ 2.47 µM) | MIC50 (Parvimonas micra): 1 µg/mL (≈ 0.617 µM) | MIC90 (Parvimonas micra): 4 µg/mL (≈ 2.47 µM) | MIC50 (Streptococcus anginosus): 2 µg/mL (≈ 1.23 µM) | MIC90 (Streptococcus anginosus): 4 µg/mL (≈ 2.47 µM) | MIC (Phocaeicola vulgatus): > 128 µg/mL | MIC50 (Phocaeicola vulgatus): > 128 µg/mL | MIC90 (Phocaeicola vulgatus): > 128 µg/mL | MIC (Odoribacter splanchnicus): > 128 µg/mL | MIC50 (Odoribacter splanchnicus): > 128 µg/mL | MIC90 (Odoribacter splanchnicus): > 128 µg/mL | MIC (Bilophila wadsworthia): > 128 µg/mL | MIC50 (Bilophila wadsworthia): > 128 µg/mL | MIC90 (Bilophila wadsworthia): > 128 µg/mL | MIC (Fusobacterium mortiferum): > 128 µg/mL | MIC50 (Fusobacterium mortiferum): > 128 µg/mL | MIC90 (Fusobacterium mortiferum): > 128 µg/mL | MIC (Prevotella corporis): > 128 µg/mL | MIC50 (Prevotella corporis): > 128 µg/mL | MIC90 (Prevotella corporis): > 128 µg/mL | MIC (Prevotella denticola): > 128 µg/mL | MIC50 (Prevotella denticola): > 128 µg/mL | MIC90 (Prevotella denticola): > 128 µg/mL | MIC (Prevotella disiens): > 128 µg/mL | MIC50 (Prevotella disiens): > 128 µg/mL | MIC90 (Prevotella disiens): > 128 µg/mL | MIC (Prevotella intermedia): > 128 µg/mL | MIC50 (Prevotella intermedia): > 128 µg/mL | MIC90 (Prevotella intermedia): > 128 µg/mL | MIC (Prevotella nigrescens): > 128 µg/mL | MIC50 (Prevotella nigrescens): > 128 µg/mL | MIC90 (Prevotella nigrescens): > 128 µg/mL | MIC [12]: > 128 µg/mL | MIC50 [12]: > 128 µg/mL | MIC90 [12]: > 128 µg/mL
